# Patent US20250295639A1, “METHODS FOR TREATING HEART DISEASES” (Cytokinetics, Incorporated, priority 2024, published 2025)
# What was measured:
# Type in all cases: in vivo, human
# [1] = system: patients with nonobstructive hypertrophic cardiomyopathy (nHCM); assay: FOREST-HCM open-label extension, 36-week analysis in nHCM
# Text: An open-label extension clinical trial of aficamten in patients with symptomatic oHCM was initiated and was described as Example 3b in WO 2024/031016 and in U.S. Patent Publication US-2024-0115554-A1, the disclosures of which are incorporated by reference herein. The treatment duration is anticipated to be multiple years. The primary objective of the trial is to determine the safety and tolerability of aficamten over a 5-year period. Safety and efficacy of aficamten in patients with nonobstructive hypertrophic cardiomyopathy (nHCM). Thirty-four patients were enrolled (mean age±SD 57.2±15.3 years, 62% women). At baseline, patients were symptomatic (41% NYHA class III) with median (IQR) NT-proBNP and hs-cTnI of […] (735, 1735) and 24.9 ng/L (9.7, 46.4), respectively. By the end of the titration period (week 6), 3 (8.8%), 3 (8.8%), 6 (17.6%) and 22 (64.7%) patients received doses of 5, 10, 15, and 20 mg daily, respectively. At baseline, LVEF (mean±SD) was 70%±6.1; over 36-weeks, there was a modest reduction of 4.3%±5.2 (p<0.0001). NYHA class improved by ≥1 class in 27 (79.4%) patients, including 20 (58.8%) were asymptomatic (NYHA class I) by week 36. The mean KCCQ-CSS improved by 13.8±12.52 points relative to baseline, with 24/31 (77.4%) patients reporting improvements of ≥5 points. […] Most patients achieved the highest available dose while maintaining normal LVEF.
# [2] = system: patients with obstructive hypertrophic cardiomyopathy (oHCM); assay: FOREST-HCM: standard of care (SoC) medications withdrawal in oHCM patients treated with aficamten
# Text: Safety and Outcomes of Standard of Care Medications Withdrawal in Patients with Obstructive Hypertrophic Cardiomyopathy (oHCM) Treated with Aficamten in FOREST-HCM Trial. Standard of care (SoC) medications for the treatment of obstructive hypertrophic cardiomyopathy (oHCM) are currently recommended as first-line therapy. There are, however, off-target side-effects that often render them poorly tolerated. Patients were classified as receiving SoC therapy (both first line and second line) if treated with at least one drug (beta-blocker [BB], non-dihydropyridine calcium channel blocker [CCB], and/or disopyramide). Patients were eligible for protocol-guided SoC withdrawal after receiving a stable dose of aficamten for ≥4-weeks and after Week 12 of the study, at the discretion of the site investigator. Successful SoC withdrawal was defined as at least a 50% dose-reduction in one medication relative to baseline. All patients were also required to have ≥1 clinical, echocardiographic and biomarker assessment after attempted withdrawal. Adverse events (AE) were prospectively evaluated 1-2 weeks after any SoC withdrawal. […] Independent of attempted withdrawal, patients maintained relief of obstruction, improvement in symptoms and health status, and low cardiac biomarkers (Table 1). In the group with successful SoC withdrawal, no clinically significant differences were observed between pre and post SoC withdrawal attempt (Table 1). Overall, there was a modest reduction in left ventricular ejection fraction (LVEF) of −3.5%±6.0 from baseline, also with no differences between groups.
# [3] = system: patients with symptomatic oHCM; assay: SEQUOIA-HCM: eligibility for septal reduction therapy (SRT); settings: aficamten (32 eligible at entry)
# Text: Eligibility for Septal Reduction Therapy (SRT). At study entry, 61 (22%) patients with oHCM were eligible for SRT based on guideline criteria (LV outflow gradient ≥50 mmHg at rest or Valsalva and NYHA class III or IV), of which 32 (23%) were assigned to aficamten and 29 (20%) to placebo. By week 12, 32 (100%) patients treated with aficamten were no longer guideline-eligible for SRT vs. 7 (24%) patients treated with placebo (P<0.001). At week 24, 28 (88%) patients treated with aficamten were no longer guideline-eligible for SRT vs. 15 (52%) on placebo (P<0.002).
# [4] = No SoC Withdrawal Group, Post (Week 24)
# [5] = No SoC Withdrawal Group, Pre (Week 12)
# [6] = No SoC Withdrawal Group, Week 24 vs Week 12
# [7] = Successful SoC Withdrawal Group, Post SoC withdrawal
# [8] = Successful SoC Withdrawal Group, Pre SoC withdrawal
# [9] = Successful SoC Withdrawal Group, post vs pre
# [10] = of the 68 who underwent withdrawal attempt
# [11] = successful SoC withdrawal cohort vs no SoC withdrawal
structure (smiles),measurement,setting,value
"CCc1nc(-c2ccc3c(c2)CC[C@H]3NC(=O)c2cnn(C)c2)no1 [aficamten, (R)—N-(5-(5-ethyl-1,2,4-oxadiazol-3-yl)-2,3-dihydro-1H-inden-1-yl)-1-methyl-1H-pyrazole-4-carboxamide]",patients reporting KCCQ-CSS improvements of ≥5 points,[1]; 24/31 patients,77.4%
same,patients asymptomatic (NYHA class I),[1]; by week 36,58.8%
same,drug discontinuations due to adverse events,[1]; in vivo,no drug discontinuations due to adverse events
same,patients with LVEF<50%,[1]; in vivo,5.9%
same,reduction in LVEF (mean±SD),[1]; over 36-weeks,4.3%
same,tolerability,[1]; over the study period,well tolerated
same,NT-proBNP median change from baseline,[1]; week 36,-665.5 pg/mL
same,hs-cTnI median change from baseline,[1]; week 36,-2.7 ng/L
same,mean KCCQ-CSS improvement relative to baseline,[1]; week 36,13.8±12.52 points
same,patients with NYHA class improved by ≥1 class,[1]; week 36,79.4%
same,"KCCQ CSS, Mean (SD)",[2]; [4],88.5 (12.55)
same,"LVEF, Mean (SD)",[2]; [4],64.4 (5.3) %
same,"LVOT-G, Rest, Mean (SD)",[2]; [4],14.0 (12.6) mmHg
same,"LVOT-G, Valsalva, Mean (SD)",[2]; [4],32.2 (25.2) mmHg
same,"NT-proBNP, median",[2]; [4],158.5 pg/mL
same,NYHA class I,[2]; [4],I: 35 (54.7%) n(%)
same,NYHA class III,[2]; [4],III: 2 (3.1%) n(%)
same,NYHA class IV,[2]; [4],IV: 0 n(%)
same,"hs-cardiac-TnI, median",[2]; [4],6.3 ng/L
same,"KCCQ CSS, Mean (SD)",[2]; [5],87.3 (13.12)
same,"LVEF, Mean (SD)",[2]; [5],65.3 (4.9) %
same,"LVOT-G, Rest, Mean (SD)",[2]; [5],19.5 (17.6) mmHg
same,"LVOT-G, Valsalva, Mean (SD)",[2]; [5],42.2 (26.0) mmHg
same,"NT-proBNP, median",[2]; [5],191.5 pg/mL
same,NYHA class I,[2]; [5],I: 34 (53.19%) n(%)
same,NYHA class III,[2]; [5],"III: 3 (4,7%) n(%)"
same,NYHA class IV,[2]; [5],IV: 0 n(%)
same,"hs-cardiac-TnI, median",[2]; [5],7.6 ng/L
same,"KCCQ CSS, change",[2]; [6],1.2
same,"LVEF, change",[2]; [6],−0.9%
same,"LVOT-G, Rest, change",[2]; [6],−5.5 mmHg
same,"LVOT-G, Valsalva, change",[2]; [6],−10.0 mmHg
same,"NT-proBNP, change",[2]; [6],-3.0 pg/mL
same,"hs-cardiac-TnI, change",[2]; [6],-0.5 ng/L
same,"KCCQ CSS, Mean (SD)",[2]; [7],83.8 (18.18)
same,"LVOT-G, Rest, Mean (SD)",[2]; [7],16.6 (13.7) mmHg
same,"LVOT-G, Valsalva, Mean (SD)",[2]; [7],35.6 (29.1) mmHg
same,"NT-proBNP, median",[2]; [7],250.0 pg/mL
same,NYHA class I,[2]; [7],I: 26 (46.4%) n(%)
same,NYHA class II,[2]; [7],"II: 26 (46,4%) n(%)"
same,NYHA class III,[2]; [7],III: 4 (7.1%) n(%)
same,NYHA class IV,[2]; [7],IV: 0 n(%)
same,"hs-cardiac-TaI, median",[2]; [7],5.8 ng/L
same,"LVEF, Mean (SD)","[2]; Successful SoC Withdrawal Group, Post SoC withdrawal, site read echo",65.5 (6.4) %
same,"KCCQ CSS, Mean (SD)",[2]; [8],80.2 (17.20)
same,"LVOT-G, Rest, Mean (SD)",[2]; [8],13.2 (11.0) mmHg
same,"LVOT-G, Valsalva, Mean (SD)",[2]; [8],27.9 (22.4) mmHg
same,"NT-proBNP, median",[2]; [8],330.0 pg/mL
same,NYHA class I,[2]; [8],I: 23 (41.1%) n(%)
same,NYHA class II,[2]; [8],II: 25(44.6%) n(%)
same,NYHA class III,[2]; [8],III: 8(14.3%) n(%)
same,NYHA class IV,[2]; [8],IV: 0 n(%)
same,"hs-cardiac-TaI, median",[2]; [8],5.8 ng/L
same,"LVEF, Mean (SD)","[2]; Successful SoC Withdrawal Group, Pre SoC withdrawal, site read echo",64.8 (5.8) %
same,"KCCQ CSS, change (95% CI)",[2]; [9],"3.5 (−0.5, 7.5)"
same,"LVEF, change",[2]; [9],0.6%
same,"LVOT-G, Rest, change",[2]; [9],3.4 mmHg
same,"LVOT-G, Valsalva, change (95% CI)",[2]; [9],"7.7 (0.8, 14.6), mmHg"
same,"NT-proBNP, change",[2]; [9],-68.0 pg/mL
same,"hs-cardiac-TaI, change",[2]; [9],0.0 ng/L
same,monotherapy patients who later restarted a SoC medication,"[2]; human, in vivo",13.2%
same,serious AEs attributed to SoC withdrawal,"[2]; human, in vivo",no serious AEs
same,patients achieving aficamten monotherapy,[2]; [10],44.1%
same,patients achieving successful SoC withdrawal (at least 50% dose-reduction in one medication),[2]; [10],92.6%
same,patients completely discontinuing at least one SoC medication,[2]; [10],61.8%
same,reduction in LVEF from baseline (mean±SD),[2]; overall,−3.5%
same,"KCCQ CSS, Δ change between cohorts at Week 24",[2]; [11],2.3
same,"LVEF, Δ change between cohorts at Week 24",[2]; [11],1.5%
same,"LVOT-G, Rest, Δ change between cohorts at Week 24",[2]; [11],8.9 mmHg
same,"LVOT-G, Valsalva, Δ change between cohorts at Week 24",[2]; [11],17.7 mmHg
same,"NT-proBNP, Δ change between cohorts at Week 24",[2]; [11],-65.0 pg/mL
same,"hs-cardiac-TnI, Δ change between cohorts at Week 24",[2]; [11],0.5 ng/L
same,SRT-eligible patients no longer guideline-eligible for SRT,[3]; week 12,100%
same,SRT-eligible patients no longer guideline-eligible for SRT,[3]; week 24,88%
